Test: Phantom calibration: CEST MTRasym spectra of I45DC-(Glu)2 in PBS
Type: physicochemical
Settings: pH 5.4 to 7.5
Description: I45DC-(Glu)2 was dissolved in PBS with conc. of 50 mM, 25 mM, 12 mM and 6.25 mM and pH from 5.4 to 7.5.
Images were taken on Bruker 11.7T scanners, using a RARE sequence with CW saturation pulse of B1=5.9 uT, Tsat=3 s. For phantoms, saturation frequency incremented every 0.3 ppm from −15 to 15 ppm with TR/TE=6000 ms/17 ms, matrix size=64×48. For in vivo, an axial slice across both kidney carlyx was chosen with thickness of 1.5 mm CEST images with saturation frequencies of [±7.8 ppm, ±7.5 ppm, ±7.2 ppm] and [±4.8 ppm, ±4.5 ppm, ±4.2 ppm] for pH reference were acquired repeatedly every 10 min pre- and post-injection. Image parameters are similar as for phantom except for TR/TE=5 s/15 ms, and CEST contrast was quantified by
MTRasym=(S−Δω−S+Δω)/S−Δω.
CEST MTRasym spectra of I45DC-(Glu)2 (FIG. 5A) show 2 broad peaks centered at 7.5 ppm and 2.4 ppm, with the 7.5 ppm peak increasing as pH increases, while the 2.5 ppm-5 ppm part remains relatively constant. […] The linearity of the ratio using saturation B1=5.9 uT is better than B1=3.6 uT partially due to a relative fast exchange rate of the heterocyclic NH (kex=˜4000).

O=C[C@H](CCC(=O)O)NNC(=O)c1nc[nH]c1C(=O)NN[C@H](C=O)CCC(=O)O [I45DC-(Glu)2, 4,5-bis[(Glu)carbonyl]-1H-imidazole]
ratio of the 7.5 ppm contrast to contrast at 4.8 ppm (6.25-50 mM): dependent on pH | exchange rate of the heterocyclic NH (kex): ~4000

Source: patent publication US20160075667A1, “COMPOSITIONS AND METHODS FOR CHEMICAL EXCHANGE SATURATION TRANSFER (CEST) MAGNETIC RESONANCE IMAGING (MRI)” (The Johns Hopkins University, priority 2013, published 2016)
